Source: ChEMBL document CHEMBL4422617, “Recent advances in the discovery of small molecules targeting glioblastoma” (Eur J Med Chem, 2019)

What was measured:
U-251 [1] = experiment: Antiproliferative activity against human U251 cells by MTT assay; type: functional, cell-based
[2] = Antiproliferative activity against human GBM95 cells after 72 hrs by MTT assay; type: functional, cell-based
U-87 MG [3] = experiment: Antiproliferative activity against human U87MG cells after 72 hrs by MTT assay; type: functional, cell-based, U-87MG ATCC
Histone deacetylase = experiment: Inhibition of mouse liver HDAC using Boc-Lys (Ac)-AMC as substrate preincubated for 5 mins followed by substrate addition and measured after 30 mins by fluorescence assay
U-251 [4] = experiment: Antiproliferative activity against human U251 cells after 24 hrs by SRB assay; type: functional, cell-based; conditions: U-251, 24 h
U-118-MG = experiment: Antiproliferative activity against human U118MG cells after 5 days by CyQuantGR dye-based fluorescence assay; type: functional, cell-based; conditions: 120 h
U-87 MG [5] = experiment: Antiproliferative activity against human U87MG cells after 5 days by CyQuantGR dye-based fluorescence assay; type: functional, cell-based, U-87MG ATCC; conditions: 120 h
T98G = experiment: Antiproliferative activity against human T98G cells after 5 days by CyQuantGR dye-based fluorescence assay; type: functional, cell-based; conditions: 120 h
[6] = Half life in […] mouse at 25 micromol/kg, ip administered as single dose by mass spectrometric analysis; type: ADME, organism-based; conditions: in vivo, 25 µmol/kg
U-251 [7] = experiment: Antiproliferative activity against human U251 cells after 5 days by CyQuantGR dye-based fluorescence assay; type: functional, cell-based; conditions: U-251, 120 h
[8] = Tmax in […] mouse at 25 micromol/kg, ip administered as single dose by mass spectrometric analysis; type: ADME, organism-based; conditions: in vivo, 25 µmol/kg
[9] = Cmax in […] mouse at 25 micromol/kg, ip administered as single dose by mass spectrometric analysis; type: ADME, organism-based; design: route intraperitoneal; conditions: in vivo, 25 µmol/kg
U-87 MG [10] = experiment: Antiproliferative activity against human U87MG cells after 24 hrs by WST-1 assay; type: functional, cell-based, U-87MG ATCC
[11] = Antiproliferative activity against human M059K cells after 48 hrs by WST-1 assay; type: functional, cell-based
U-251 [12] = experiment: Antiproliferative activity against human U251 cells after 24 hrs by MTT assay; type: functional, cell-based; conditions: U-251, 24 h
[13] = Antiproliferative activity against human D456 cells after 7 days […] by CellTiter Glo assay; type: functional, cell-based; conditions: 168 h
PBMC = experiment: Cytotoxicity against human PBMC after 72 hrs by MTT assay; type: cell-based
SF-295 [14] = experiment: Cytotoxicity against human SF295 cells after 72 hrs by MTT assay; type: functional, cell-based; conditions: SF-295, 72 h
[15] = Antiproliferative activity against human U3046MG cells by CellTiter-Glo assay; type: functional, cell-based
[16] = Antiproliferative activity against human U3005MG cells by CellTiter-Glo assay; type: functional, cell-based
[17] = Cytotoxicity against patient derived GSC after 96 hrs by CellTiter-Glo assay; type: functional, Homo sapiens
SF-295 [18] = experiment: Antiproliferative activity against human SF295 cells after 72 hrs by MTT assay; type: functional, cell-based; conditions: SF-295, 72 h
U-87 MG [19] = experiment: Antiproliferative activity against human U87 cells after 48 hrs by MTT assay; type: functional, U-87MG ATCC
U-251 [20] = experiment: Cytotoxicity against human U251 cells after 72 hrs by AlamarBlue assay; type: functional, cell-based; conditions: U-251, 72 h
U-87 MG [21] = experiment: Cytotoxicity against human U87 cells expressing EGFRvIII after 72 hrs by AlamarBlue assay; type: functional, cell-based, U-87MG ATCC
U-87 MG [22] = experiment: Cytotoxicity against human U87 cells after 72 hrs by AlamarBlue assay; type: functional, cell-based, U-87MG ATCC
GBM = experiment: Cytotoxicity against GBM cells derived from human patient after 72 hrs by AlamarBlue assay; type: functional, cell-based
U373 MG = experiment: Antiproliferative activity against human U373MG cells after 48 hrs by MTS assay; type: functional, cell-based, U-373MG ATCC
U-87 MG [23] = experiment: Antiproliferative activity against human U87MG cells after 48 hrs by MTS assay; type: functional, cell-based, U-87MG ATCC
U-87 MG [24] = experiment: Antitumor activity against human U87MG cells xenografted in nude-Fox1nu mouse assessed as tumor growth inhibition at 150 mg/kg bid relative to control; type: functional, U-87MG ATCC; conditions: read-out: TGI
U-87 MG [25] = experiment: Antiproliferative activity against human U87MG cells after 96 hrs; type: functional, U-87MG ATCC
U-251 [26] = experiment: Antiproliferative activity against human U251 cells after 72 hrs by WST-1 assay; type: functional, cell-based; conditions: U-251, 72 h
[27] = Antiproliferative activity against human BT74 cells after 72 hrs by WST-1 assay; type: functional, cell-based
[28] = Antiproliferative activity against human MGG4 cells after 72 hrs by WST-1 assay; type: functional, cell-based
A 172 = experiment: Antiproliferative activity against human A172 cells after 72 hrs by WST-1 assay; type: functional, cell-based; conditions: A 172, 72 h
[29] = Antiproliferative activity against human MGG8 cells after 72 hrs by WST-1 assay; type: functional, cell-based
U-87 MG [30] = experiment: Antiproliferative activity against human U87 cells after 72 hrs by WST-1 assay; type: functional, cell-based, U-87MG ATCC

In the case of CCN(CC)CCCC(C)Nc1c2ccc(Cl)cc2nc2ccc(OC)cc12 (stereo not drawn) [QUINACRINE], the IC50 (U-251 [1]) is reported as 5 µM.

CC(C)=CCC1=C(NCCCCN(CN)CCCc2ccccc2)C(=O)c2ccccc2C1=O showed an IC50 [2] of 6.6 µM and an IC50 (U-87 MG [3]) of 4.3 µM.

O=C(CCCCCn1cc(C(=O)Nc2nc3ccccc3s2)c(=O)c2ccccc21)NO showed an IC50 (Histone deacetylase) of 1.5 nM and an IC50 (U-251 [4]) of 700 nM.

Work on Cc1ccc(N(CCn2nnc3c(C(N)=O)ncn3c2=O)CCn2nnc3c(C(N)=O)ncn3c2=O)cc1 yielded an IC50 (U-118-MG) of 10 µM, an IC50 (U-87 MG [5]) of 14 µM and an IC50 (T98G) of 11.3 µM. The half-life [6] was 14 min, the IC50 (U-251 [7]) was 5.2 µM and the Tmax [8] was 10 min. It also gave a Cmax [9] of 260 nM.

O[C@@H](c1cc(C(F)(F)F)nc2c(C(F)(F)F)cccc12)[C@H]1CCCCN1 [(S,R)-MEFLOQUINE] showed an IC50 (U-251 [1]) of 10 µM.

COc1ccc(/N=C/c2c(O)ccc3c2oc2cc(Cl)c(O)c(Cl)c23)cc1 showed an IC50 (U-87 MG [10]) of 25 µM and an IC50 [11] of 40 µM.

Work on Cc1ccc(-c2nnc(SCC(=O)N3N=C(c4cccs4)CC3c3ccc(Cl)cc3)o2)cc1 (stereo not drawn) yielded an IC50 (U-251 [12]) of 11.9 µM.

O=C1CC(c2ccc(-c3cc[nH]n3)s2)c2cc(N3CCNC3=O)ccc2N1 (stereo not drawn) gave an IC50 [13] of 1690 nM.

For O=C1C=C(N[C@@H](Cc2ccccc2)C(=O)O)C(=O)c2ccccc21, the IC50 (PBMC) was 37.9 µM and the IC50 (SF-295 [14]) was 2000 nM.

Molecule CN1CCN(CCCN2c3ccccc3Sc3ccc(C(F)(F)F)cc32)CC1 [TRIFLUOPERAZINE] has an EC50 [15] of 1340 nM and an EC50 [16] of 1850 nM.

For CCN(CC)C(=S)SSC(=S)N(CC)CC, the IC50 [17] was 31.1 nM.

CC1(C)OC2=C(C(=O)C(=O)c3ccccc32)[C@H](n2cc(C[Se]c3ccc(F)cc3)nn2)[C@H]1Br showed an IC50 (SF-295 [18]) of 1480 nM.

Molecule Cc1nc(=O)c2c(-c3ccccc3)c(C(=O)c3ccccc3)[nH]c2[nH]1 has a GI50 (U-87 MG [19]) of 77 nM.

Molecule O=C(CCCc1ccc(-c2cc3ccccc3cn2)cc1)Nc1ccc(O)cc1 has an EC50 (U-251 [20]) of 600 to 1300 nM, an EC50 (U-87 MG [21]) of 600 to 1300 nM and an EC50 (U-87 MG [22]) of 600 to 1300 nM. The EC50 (GBM) was 540 nM.

O=C1[C@@H]2CS[C@]3(C(=O)Nc4ccccc43)N2C(=O)N1Cc1ccc(Cl)cc1 showed an IC50 (U373 MG) of 5.7 µM and an IC50 (U-87 MG [23]) of 2500 nM.

For CS(=O)(=O)N1CCN(Cc2cc3nc(-c4cccc5[nH]ncc45)nc(N4CCOCC4)c3s2)CC1 [PICTILISIB], the inhibition in vivo at 150 mg/kg (U-87 MG [24]) was 98% and the GI50 (U-87 MG [25]) was 70 nM.

Work on CCn1c(C)c(C(=O)c2ccc(C)c3ccccc23)c2ccccc21 yielded an EC50 (U-251 [26]) of 2.4 to 8.6 mM, an EC50 [27] of 2.4 to 8.6 mM and an EC50 [28] of 2.4 to 8.6 mM. For the same molecule, the EC50 (A 172) was 2.4 to 8.6 mM, the EC50 [29] was 2.4 to 8.6 mM and the EC50 (U-87 MG [30]) was 2.4 to 8.6 mM.
